SMILES strings stand for the structures. Where two headings read alike, the source gives them in different places.

This note sets out measurements from patent US8546452B2, “S1P3 receptor antagonist” (TOA Eiyo Ltd., priority 2005, dated 2013).

A short description of data set [1]: Time to reach the maximum blood concentration after oral administration. In kind it is in vivo. The settings on record: oral administration (1 mg/kg).
In data set [2] the test system is FTY720-induced bradycardia. In words: Effect on hemodynamic changes (bradycardia) caused by FTY720 in anesthetized rat. The settings on record: FTY720 1 mg/kg intravenously. Type of data set: in vivo. On the procedure:
Thus, the effects of the compound of the present invention on the FTY720-induced bradycardia were examined.
A rat was anesthetized with pentobarbital (50 mg/kg, intraperitoneal administration), and then catheters for drug administration and blood pressure measurement were inserted into the lower limb vein and the carotid artery, respectively. The blood pressure was measured with a strain pressure amplifier via a pressure transducer. The heart rate was measured with a tachometer by means of the electrocardiographic wave. The FTY720 used was purchased from Cayman Chemical Co.
FTY720 (1 mg/kg) was intravenously administered, and the effects thereof on hemodynamics were investigated by measuring the blood pressure and the heart rate at 0 minute (immediately before administration), and 10, 20 and 30 minutes immediately after the intravenous administration.

Data set [3] has as its system isolated heart of rat. Description: Effect on the coronary blood flow rate in isolated heart of rat (Langendorff perfusion). Conditions: S1P 10^−9 M to 10^−7 M in perfusion solution. On the procedure: A male SD rat weighing about 350 g was anesthetized with pentobarbital sodium (50 mg/kg), and heparin (1000 U/kg) was administered through the lower limb vein. The heart was rapidly isolated and connected to a Langendorff perfusion apparatus. […] The temperature of the perfusion solution was set at 37±0.2° C., and gassed with a gas mixture (95% O2 and 5% CO2) such that the oxygen partial pressure was 550 mmHg or more. The coronary perfusion flow rate was measured with an electromagnetic blood flow meter through a probe installed in the circulation pathway. Furthermore, the effects on the heart function were investigated using the left ventricular developed pressure (LVDP), the first derivative of the left ventricular pressure (LV±dp/dt) and the heart rate (HR) as indices. The LVDP was determined by subtracting the left ventricular end diastolic pressure (LVEDP) from the left ventricular systolic pressure (LVSP), which was detected with a latex balloon inserted into the left ventricle, and measured with a pressure strain meter via a pressure transducer. […] Signals measured with the pressure strain meter were conducted to a differential meter and a heart rate meter, to measure the first derivative of the left ventricular pressure (LV±dp/dt) and the heart rate (HR). […]

Data set [4] concerns the target T1, hS1P3 (Homo sapiens, UniProt Q99500). In words: Suppressive effect on S1P-induced increase in [Ca2+]i, CHO-K1 cells expressing S1P3 (Fura 2-AM), IC50. Type of data set: cell-based. The settings on record: S1P solution 50 nmol/L, read-out: hS1P3 suppression IC50.
Data set [5] concerns the target T1, hS1P3. Description: S1P receptor subtype selectivity, S1P-induced [Ca2+]i increase in CHO-K1 cells stably expressing S1P3 (Calcium3). Type of data set: cell-based. As for the experimental part:
(§1) The selectivity to the S1P receptor subtype was examined in the following manner. […] Furthermore, a Calcium3 (Molecular Devices, Inc.) solution prepared in HBSS (+) buffer, which is a fluorescent Ca^2+ indicator, was added, and the cells were incubated for 60 minutes at 37° C. Then, 100 μL of a test compound solution prepared to a concentration of 2×10 μmol/L was added, and the cells were incubated for 20 minutes at 37° C. […] The indicator was prepared and used according to the instruction manual.
(§2) A solution of the test compound was prepared by dissolving each of the test compounds in DMSO to a concentration of 10 mmol/L, and then diluting the solution with an HBSS (+) buffer solution to the predetermined concentration. […] The measurement values were obtained by subtracting the maximum RFU value for the blind test from the maximum RFU values for control or each test compounds. A decrease in the measurement value for the test compound relative to the control was indicated as the suppression rate (%), from which the IC50 value was calculated.

For data set [6], the target named is T2, hS1P1 (Homo sapiens, UniProt P21453).
T2 construct: expressed in transfected cells
In words: S1P receptor subtype selectivity, S1P-induced [Ca2+]i increase in CHO-K1 cells stably expressing S1P1 (Calcium3). Type of data set: cell-based. On the procedure: as §1, §2

Data set [7] concerns the target T3, hS1P2 (Homo sapiens, UniProt O95136).
T3 construct: expressed in transfected cells
Description: S1P receptor subtype selectivity, S1P-induced [Ca2+]i increase in CHO-K1 cells stably expressing S1P2 (Calcium3). In kind it is cell-based. On the procedure:
as §1, §2

The mark [8] stands for this setting: CHO-K1, read-out: Suppression rate at 10 μM (%) hS1P3.
The mark [9] stands for this setting: CHO-K1, read-out: Suppression rate at 10 μM (%) hS1P1.
[10] abbreviates: CHO-K1, read-out: Suppression rate at 10 μM (%) hS1P2.
Where [11] appears, read: 10 μM, CHO-K1 stably expressing S1P3, S1P solution 50 nmol/L, Calcium3, read-out: Suppression rate at 10 μM (%) hS1P3.
Setting [12] is: 10 μM, CHO-K1 stably expressing S1P1, S1P solution 100 nmol/L, Calcium3, read-out: Suppression rate at 10 μM (%) hS1P1.
[13] abbreviates: 10 μM, CHO-K1 stably expressing S1P2, S1P solution 100 nmol/L, Calcium3, read-out: Suppression rate at 10 μM (%) hS1P2.

T2 sequence (P21453 whole entry): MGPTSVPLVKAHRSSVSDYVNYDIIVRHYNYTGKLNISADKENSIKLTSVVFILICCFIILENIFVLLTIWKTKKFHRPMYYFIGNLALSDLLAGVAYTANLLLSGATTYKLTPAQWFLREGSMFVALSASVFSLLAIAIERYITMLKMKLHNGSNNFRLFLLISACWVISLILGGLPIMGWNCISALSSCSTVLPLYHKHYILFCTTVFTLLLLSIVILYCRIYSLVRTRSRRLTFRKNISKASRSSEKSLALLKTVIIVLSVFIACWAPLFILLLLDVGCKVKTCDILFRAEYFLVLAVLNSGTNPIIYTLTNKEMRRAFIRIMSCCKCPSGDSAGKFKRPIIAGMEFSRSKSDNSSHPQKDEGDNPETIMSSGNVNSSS
T1 sequence (Q99500 whole entry): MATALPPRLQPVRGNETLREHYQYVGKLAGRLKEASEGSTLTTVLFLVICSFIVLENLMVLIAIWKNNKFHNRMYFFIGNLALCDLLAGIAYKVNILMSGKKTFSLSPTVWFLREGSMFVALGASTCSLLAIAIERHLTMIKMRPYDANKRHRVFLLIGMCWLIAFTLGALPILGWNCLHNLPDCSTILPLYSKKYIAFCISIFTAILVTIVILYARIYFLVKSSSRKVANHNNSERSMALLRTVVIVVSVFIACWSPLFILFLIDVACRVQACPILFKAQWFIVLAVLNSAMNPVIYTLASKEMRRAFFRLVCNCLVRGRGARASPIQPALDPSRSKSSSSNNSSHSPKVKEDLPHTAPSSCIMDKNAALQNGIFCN
T3 sequence (O95136 whole entry): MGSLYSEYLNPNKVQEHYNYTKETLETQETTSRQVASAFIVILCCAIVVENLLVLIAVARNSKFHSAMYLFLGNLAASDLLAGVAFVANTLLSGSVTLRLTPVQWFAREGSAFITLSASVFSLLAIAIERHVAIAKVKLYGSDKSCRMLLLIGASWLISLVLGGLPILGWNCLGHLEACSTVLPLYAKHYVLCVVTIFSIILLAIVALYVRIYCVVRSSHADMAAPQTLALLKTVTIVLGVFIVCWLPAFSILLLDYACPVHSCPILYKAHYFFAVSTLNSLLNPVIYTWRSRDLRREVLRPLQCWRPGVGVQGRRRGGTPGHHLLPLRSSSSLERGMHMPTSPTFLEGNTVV

`CC(C)(C)C(=O)/C(=N/c1ccc(Cl)cc1)NNc1ccc(Cl)cc1` [Compound 33, 1-(4-chlorophenylamino)-1-(4-chlorophenylhydrazono)-3,3-dimethyl-2-butanone]: the “time to reach the maximum blood concentration” value in data set [1] amounted to 4 h.
For `CCCCCCCCc1ccc(CCC(N)(CO)CO)cc1` [FTY720], the “heart rate, effect of FTY720” value in data set [2] is “reduced the heart rate and induced bradycardia”.
In the case of `CCCCCCCCCCCCC/C=C/[C@@H](O)[C@@H](N)COP(=O)(O)O` [Compound S1P, sphingosine 1-phosphate], the “coronary blood flow rate, effect of S1P” value in data set [3] is “significantly decreased”.
On to `C#Cc1ccc(NC(=NNc2ccc(Cl)cc2)C(=O)C(C)(C)C)cc1` [Compound 136, 1-(4-chlorophenylhydrazono)-1-(4-ethynylphenylamino)-3,3-dimethyl-2-butanone], for which, in data set [4], the IC50 came to 990 nM. The results for the inhibition at 10 µM in data set [5] (setting [8]), in data set [6] (setting [9]) and in data set [7] (setting [10]) were 94.3%, 40.3% and 33.7%, respectively.
For `C#Cc1ccc(NC(=NNc2ccc(Cl)cc2)C(=O)CCCC)cc1` [Compound 111, 1-(4-chlorophenylhydrazono)-1-(4-ethynylphenylamino)-2-hexanone], in data set [4], the 50% inhibitory concentration (IC50) turned out to be 1550 nM. For the same molecule, the inhibition at 10 µM is 95.1% in data set [5] (setting [8]), -16.6% in data set [6] (setting [9]) and 23.1% in data set [7] (setting [10]).
Turning to `CCC(CC)C(=O)C(=NNc1ccc(Cl)cc1)Nc1ccc(F)cc1` [Compound 112, 1-(4-chlorophenylhydrazono)-1-(4-fluorophenylamino)-3-ethyl-2-pentanone], the IC50 in data set [4] is 1660 nM. In addition, the figures for the inhibition at 10 µM in data set [5] (setting [11]), in data set [6] (setting [12]) and in data set [7] (setting [13]) were 86.6%, 22.1% and 12.8%, respectively.
On to `CC(C)(C)C(=O)C(=NNc1ccc(C(F)(F)F)cc1)Nc1ccc(F)cc1` [Compound 67, 1-(4-fluorophenylamino)-1-(4-trifluoromethylphenylhydrazono)-3,3-dimethyl-2-butanone], for which the IC50 in data set [4] amounted to 8200 nM. Besides, the inhibition at 10 µM in data set [5] (setting [11]) was determined as 90.2%; in data set [6] (setting [12]) it was 20.8%; in data set [7] (setting [13]), 15.5%.
